Key:
[1] = test system: MOLM-14 cells; experiment: MOLM-14 xenograft in NSG mice, differentiation in vivo; conditions: 5 mg/kg/week i.p., two weeks
Method: (a) NSG mice were injected with 2 millions MOLM-14 cells, and treated with IRC-083864 at 5 mg/kg/week i.p. (n=4) or with vehicle buffer (n=4) as described in the Methods section. Bone marrow cells were extracted after dissection after two weeks and the expression of CD14 and CD15 on human blasts was followed by flow cytometry analysis. (b) Quantification (mean±SEM, n=4) of CD14 and CD15 expression in response to IRC-083864. (c) Morphological analyses of human cells used in (a). Original magnification ×100.
In vivo experiments. Animals were used in accordance to a protocol reviewed and approved by the Institutional Animal Care and User Ethical Committee of the UMS006 and Region Midi-Pyrénées (Approval#13-U1037-JES08). NOD/LtSz-scid IL-2Rγchainnull (NSG) mice (Sanchez P V et al) were produced at the Genotoul Anexplo platform in Toulouse (France) using breeders obtained from The Charles River Laboratory. Mice were housed in sterile conditions using HEPA filtered micro-isolators and fed with irradiated food and acidified water. Transplanted mice were treated with antibiotics (enrofloxacin) for the duration of the experiment. […] Adult mice (6 or 7-week old) were treated with 20 mg/kg Busulfan (Busilvex, Pierre Fabre, France) by i.p. administration 24 hours before injection of leukemic cells. Cultured MOLM-14 cells were washed in PBS and cleared of aggregates and debris using a 0.2 mm cell filter, and suspended in PBS at a final concentration of 2 million cells per 200 μL of PBS per mouse for i.v. injection. IRC-083864 (5 mg/kg/week) was then administrated to leukemic mice by i.p. injection. Daily monitoring of mice for symptoms of disease (ruffled coat, hunched back, weakness and reduced motility) determined the time of animal euthanasia. Cell differentiation was monitored after two IRC-083864 injections: mice were humanely killed in accordance with IACUC protocols. Bone marrow (mixed from tibias and femurs) were dissected, flushed in PBS and made into single cell suspensions for analysis by flow cytometry and cytospins.

[2] = biological target: Cdc25A (Homo sapiens, UniProt P30304); conditions: cited from earlier work
[3] = test system: FLT3-ITD cells; experiment: Cell death and cell cycle phase at antiproliferative concentrations; format: cell-based, human; conditions: at concentrations inhibiting cell proliferation
Method: Flow cytometry. Apoptotic cells were detected with Annexin V-FITC detection kit from BD Pharmingen (San Diego, Calif., USA) according to the manufacturer instructions. To evaluate AML cell differentiation, cells were stained for 30 min with the following anti-human monoclonal antibodies: CD11b-PE (Beckman Coulter), CD14-FITC (BD Biosciences), CD15-APC (BD Biosciences). For patient samples, additional hCD45-APC-H7 (BD Biosciences), Annexin V-Pacific Blue (BioLegend, San Diego, Calif., USA) and 7-AAD (Sigma) were used; and for bone marrow mice cells, additional CD33-FITC, CD44-PE Cy7, mCD45-PerCP Cy 5.5, CD14-Alexa 700 were used. Data were collected on a LSRII or a LSRFortessa cytometer (BD Biosciences), and analyzed with FlowJo software. A minimum of 10,000 events was collected.

[4] = test system: primary AML cells expressing wild-type FLT3; experiment: Clonogenic assay, FLT3 wild-type primary AML cells; format: cell-based, human; conditions: 100 and 200 nM, day 7
Method: (c) Primary cells from patients were cultured in semi-solid medium to estimate their clonogenic potential as described in the Methods section, in the presence or the absence of IRC-083864 (100 and 200 nM). 6 FLT3-ITD positive (upper panel) and 4 FLT3-wild type (lower panel) AML primary samples were used for these experiments. Leukemic colonies were scored under an inverted microscope at day 7.
Patient samples. Patient AML samples were obtained after informed consent in accordance with the Declaration of Helsinki and stored at the HIMIP collection. According to the French law, HIMIP collection has been declared to the Ministry of Higher Education and Research (DC 2008-307 collection 1) and obtained a transfer agreement (AC 2008-129) after approbation by ethical committees (Comité de Protection des Personnes Sud-Ouest et Outremer II and APHP ethical committee). Clinical and biological annotations of the samples have been declared to the CNIL (Comité National Informatique et Libertés i.e. Data processing and Liberties National Committee). Frozen cells were thawed in IMDM medium with 20% FBS and immediately processed for treatment. All patients were diagnosed at the Department of Hematology of Toulouse University Hospital.
Clonogenic assay. […] Leukemic colonies were then scored under an inverted microscope.

Chain of Cdc25A (P30304 whole entry): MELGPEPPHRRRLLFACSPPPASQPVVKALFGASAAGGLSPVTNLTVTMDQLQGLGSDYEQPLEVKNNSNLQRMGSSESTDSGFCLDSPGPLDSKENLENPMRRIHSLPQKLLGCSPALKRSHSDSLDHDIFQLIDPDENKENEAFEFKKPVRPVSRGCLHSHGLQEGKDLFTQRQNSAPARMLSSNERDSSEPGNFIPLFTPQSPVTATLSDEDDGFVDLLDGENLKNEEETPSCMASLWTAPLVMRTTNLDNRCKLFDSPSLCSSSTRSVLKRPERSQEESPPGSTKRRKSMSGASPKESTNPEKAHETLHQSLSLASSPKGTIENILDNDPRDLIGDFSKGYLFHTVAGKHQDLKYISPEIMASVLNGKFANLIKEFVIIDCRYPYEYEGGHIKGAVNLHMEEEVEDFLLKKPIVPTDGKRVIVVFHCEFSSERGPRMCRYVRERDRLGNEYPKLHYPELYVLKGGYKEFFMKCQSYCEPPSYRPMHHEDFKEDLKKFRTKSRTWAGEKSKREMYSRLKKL

## Cc1nc2c(s1)C(=O)C=C(NCCCN(C)CCCNC1=CC(=O)c3nc(-c4cc(F)ccc4F)oc3C1=O)C2=O [IRC-083864]
[1]
  CD11b expression on human myeloid cells in bone marrow: no change
  CD14 expression on MOLM-14 cells from bone marrow: increased expression
  CD15 expression on MOLM-14 cells from bone marrow: unchanged expression
  morphology of cytospun human bone marrow cells: monocytic-like nuclear changes
[2]
  IC50 Cdc25 enzyme type A: nanomolar range
[3]
  accumulation in a phase of the cell cycle: nor accumulation in a particular phase of the cell cycle
  cell death: did not induce neither significant cell death
[4]
  clonogenic potential of primary cells expressing wild-type FLT3: not sensitive

Reference: patent US10179914B2, “CDC25A inhibitor for the treatment of drug resistant cancer or for the prevention of tumor relapse” (INSERM (INSTITUT NATIONAL DE LA SANTÉ ET DE LA RECHERCHE …, priority 2014, dated 2019)
